ChEMBL document CHEMBL2417420, “Autotaxin inhibition: development and application of computational tools to identify site-selective lead compounds” (Bioorg Med Chem, 2013)
The source made the active and inactive calls. The rule behind the calls is not given here. Peptide text beside a SMILES is read from it. * marks the point of attachment. Cbz = O=C(OCc1ccccc1)*

Key:
Autotaxin [1] = target: T1, Autotaxin (Homo sapiens, UniProt Q13822); assay: Activation of C-terminal FLAG-tagged human recombinant autotaxin using paranitrophenyl thymidine monophosphate as substrate at 10 uM measured every 2 mins by […] assay
Autotaxin [2] = target: T1, Autotaxin; assay: Inhibition of C-terminal FLAG-tagged human recombinant autotaxin using synthetic substrate FS-3 at 10 uM measured every 2 mins by FRET assay relative to control
Autotaxin [3] = target: T1, Autotaxin; assay: Inhibition of C-terminal FLAG-tagged human recombinant autotaxin using synthetic substrate FS-3 measured every 2 mins by FRET assay
A2058 [4] = assay: Cytotoxicity against human A2058 cells assessed as reduction of cell number at 30 uM after 24 hrs by MTS assay; type: functional
Autotaxin [5] = target: T1, Autotaxin; assay: Activation of C-terminal FLAG-tagged human recombinant autotaxin using paranitrophenyl thymidine monophosphate as substrate measured every 2 mins by […] assay
Autotaxin [6] = target: T1, Autotaxin; assay: Competitive inhibition of C-terminal FLAG-tagged human recombinant autotaxin using synthetic substrate FS-3 by Michaelis-Menten equation analysis
A2058 [7] = assay: Reduction of cell migration in human A2058 cells at 30 uM after 4 to 48 hrs by monolayer scratch assay; type: functional

inhibition (Autotaxin [2]) [%]	Compound	further results
61.5	CCCc1ccc(S(=O)(=O)Oc2ccccc2-c2cc(CC)n(CCN3CCCCC3)n2)cc1	IC50 (Autotaxin [3]): 4900 nM
85.3	CC(O)C(NC(=O)c1ccc(N2CCC(CCCC3CCN(C(=O)Cc4ccc(-c5ccccc5)cc4)CC3)CC2)nc1)C(N)=O (stereo not given)	Activity (A2058 [4]): Active; EC50 (Autotaxin [5]): 4440 nM; Ki (Autotaxin [6]): 200 nM; IC50 (Autotaxin [3]): 900 nM
62.3	CC(C)C1C(=O)Nc2cc(S(=O)(=O)NCc3ccccc3)ccc2N1C(=O)CN1CCCCC1 (stereo not given)	IC50 (Autotaxin [3]): 6200 nM
10	COc1ccc(-c2cc(C(=O)NC(C)(C)C(=O)NCCC3CCCN3C)c3ccccc3n2)cc1 (stereo not given)	–
93.7	O=C(O)c1ccccc1-c1ccc(/C=C2/SC(=S)N(Cc3ccccc3)C2=O)o1	IC50 (Autotaxin [3]): 2400 nM
30	Cc1[nH]c2ccccc2c1CC(=O)N1CCN(C(=O)c2ccccc2C(=O)c2ccc(Cl)cc2)CC1	–
20	O=C(O)CN1C(=O)/C(=C/c2ccc(-c3ccc(Cl)cc3)o2)S/C1=N\c1ccccc1	–
10	NC(=O)C(Cc1ccc(O)cc1)NC(=O)c1ccc(N2CCN(C(=O)C(N)Cc3ccccc3)CC2)nc1 (stereo not given)	–
20	CC(O)C(NC(=O)c1cccnc1N1CCN(C(=O)Cc2ccc(-c3ccccc3)cc2)CC1)C(N)=O (stereo not given)	–
20	O=C1/C(=C/c2cccc(Oc3ccccc3)c2)SC(=S)N1Cc1ccccc1	–
10	COc1ccc(-c2cc(C(=O)NCC(C)C(=O)NCCNc3ccccc3)c3ccccc3n2)cc1 (stereo not given)	–
30	COc1cc(C2C(C#N)=C(SCC(=O)Nc3cccc4ccccc34)NC3=C2C(=O)CCC3)ccc1O (stereo not given)	–
30	O=C(NCC(O)CO)c1ccc2c(c1)nc(CN1CCC(N3CCCC3)CC1)n2CCc1ccccc1 (stereo not given)	–
20	CC(=O)N1CCc2cc(NC(=O)c3ccc4nc(C)c(N(C)C(=O)CCc5ccccc5)n4c3)ccc21	–
20	COc1cc(CCNC(=O)c2ccc3c(c2)nc(-c2ccccc2)n3CCc2ccc(OC)c(OC)c2)cc(OC)c1	–
30	COc1cc(OC)cc(-c2nc3cc(C(=O)NCCc4ccccc4)ccc3n2CCc2ccc(OC)c(OC)c2)c1	–

inhibition (Autotaxin [2]) [%]	Compound	further results
0	CCn1c2ccccc2c2cc(/C=C3\SC(=S)N([C@H](Cc4ccccc4)C(=O)O)C3=O)ccc21	–
20	CC(c1cc2ccccc2o1)N1CCN(C(=O)CCSc2ccc3ccccc3c2)CC1 (stereo not given)	–
63.8	COc1cc(CCNC(=O)c2ccc3c(c2)nc(-c2cccc4ccccc24)n3CCc2ccc(OC)c(OC)c2)cc(OC)c1	IC50 (Autotaxin [3]): 1100 nM
20	CCCCCOc1ccc(/N=C2\C=C(O)C(=O)c3ccccc32)cc1	–
20	O=C(O)c1cc(-c2ccc(/C=C3/S/C(=N\Cc4ccccc4)N(Cc4ccccc4)C3=O)o2)ccc1Cl	–
20	CC(O)C(NC(=O)c1ccc(N2CCN(C(=O)CCC(=O)c3ccccc3)CC2)nc1)C(N)=O (stereo not given)	–
20	Cc1cc(C)cc(CC(=O)N2CCN(c3ccc(C(=O)NC(C(N)=O)C(C)O)cn3)CC2)c1 (stereo not given)	–
20	COc1cc([C@@H]2C(C(=O)c3cccs3)=C(O)C(=O)N2CCc2ccccc2)cc(Br)c1O	–
20	COc1ccc(OC)c(C(=O)NC(CC(=O)NCCc2c[nH]c3ccccc23)c2ccccc2)c1 (stereo not given)	–
10	O=C1/C(=C\c2cc(Cc3ccccc3)ccc2O)SC(=S)N1Cc1ccccc1	–
10	COc1cccc(Cc2nc3cc(C(=O)NCC(O)CO)ccc3n2CCc2ccccc2F)c1 (stereo not given)	–
20	COc1ccccc1/C=C1\SC(=O)N(CCC(=O)N2c3ccccc3Sc3ccccc32)C1=O	–
0	CC(CC(=O)N1CCCN(c2ccc(C(=O)NC(C(N)=O)C(C)O)cn2)CC1)c1ccccc1 (stereo not given)	–
30	COc1ccccc1C1CC(=O)NC(SCC(=O)Nc2ccc(Br)cc2)=C1C#N (stereo not given)	–
10	COc1ccc(CCn2c(CCc3ccccc3)nc3cc(C(=O)NCCOCCO)ccc32)cc1OC	–

The next lines start with the compound.

Compound	inhibition (Autotaxin [2]) [%]	further results
CCCSC1=C(C#N)C(c2cc(Br)c(O)c(OC)c2)CC(=O)N1 (stereo not given)	–	Activity (Autotaxin [1]): Active
CCOC(=O)C1=C(C)N=c2s/c(=C/c3cccc(OC)c3O)c(=O)n2[C@@H]1c1ccccc1	–	Activity (Autotaxin [1]): Active
O=C(Cn1c(=O)sc2cccc(Cl)c21)OCc1cccc(Oc2ccccc2)c1	–	Activity (Autotaxin [1]): Active
COc1cc(/C=C2/SC(=S)N(Cc3ccccc3)C2=O)ccc1OC(=O)c1ccc(F)cc1	–	Activity (Autotaxin [1]): Active
CCOc1cc(/C=C2/SC(=S)N(Cc3ccccc3)C2=O)ccc1OC(=O)c1ccc(F)cc1	–	Activity (Autotaxin [1]): Active
CCOC(=O)C1=C(C)N=c2s/c(=C/c3ccc(O)c(OC)c3)c(=O)n2[C@H]1c1cccc2ccccc12	–	Activity (Autotaxin [1]): Active
O=C(O)c1ccc(-c2ccc(/C=C3/SC(=O)N(Cc4ccc(F)cc4)C3=O)o2)cc1	68.8	IC50 (Autotaxin [3]): 4400 nM
CC(O)C(NC(=O)c1ccc(N2CCN(C(=O)Cc3cccc4ccccc34)CC2)nc1)C(N)=O (stereo not given)	–	Activity (Autotaxin [1]): Active
O=C(O)c1cc(-c2ccc(/C=C3\S/C(=N\c4ccccc4)N(Cc4ccccc4)C3=O)o2)ccc1Cl	–	Activity (Autotaxin [1]): Active
CC(C)Cc1ccc(C(C)C(=O)N2CCC(CCCC3CCN(c4ccc(C(=O)NC(C(N)=O)C(C)O)cn4)CC3)CC2)cc1 (stereo not given)	87.3	Activity (A2058 [4]): Active; EC50 (Autotaxin [5]): 4310 nM; Ki (Autotaxin [6]): 800 nM; IC50 (Autotaxin [3]): 800 nM
COc1cc(/C=c2/sc3nc4ccccc4n3c2=O)cc(Br)c1OCc1ccccc1Cl	–	Activity (Autotaxin [1]): Active
CS(=O)(=O)N1CCC(N(C(=O)COc2ccccc2)C2CCC2)CC1c1cccc(F)c1 (stereo not given)	30	–
Cc1[nH]n(-c2cc(Cl)c(S(=O)(=O)O)cc2Cl)c(=O)c1/N=N/c1cc(Nc2nc(Cl)nc(Nc3cccc(S(=O)(=O)O)c3)n2)ccc1S(=O)(=O)O	10	–
COC(=O)C1C(=O)NC(SCC(=O)Nc2ccc(C)cc2Br)=C(C#N)C1c1ccc(OC)cc1 (stereo not given)	–	Activity (Autotaxin [1]): Active
COc1cc(C(=O)NCCNc2nc3cc4c(cc3cc2C#N)OCO4)cc(OC)c1OC	10	–
O=C(COc1cc(Cl)c(Cl)cc1Cl)Nc1ccc(CNC(=O)c2cnc3cc(C(F)(F)F)ccc3c2O)cc1	10	–
COc1ccc(/C=N/NC(=O)c2cc(O)c(O)c(O)c2)cc1Cn1nc(C)c(Br)c1C	10	–
CCCCOc1ccc(-c2nc3cc(C(=O)NCCOCCO)ccc3n2Cc2ccco2)cc1	10	–
CCCCS(=O)(=O)N1CCn2nc(C3CCC(CNS(=O)(=O)c4ccccc4C)CC3)cc21 (stereo not given)	30	–
CCc1cc2c(cc3c(=O)n(CCCC(=O)NCc4ccc(Cl)cc4)ncn32)s1	30	–
COc1cc(/C=C2/SC(=S)N(Cc3ccccc3)C2=O)ccc1OC(=O)c1ccco1	–	Activity (Autotaxin [1]): Active
COc1ccc(C2=NN(C(=O)CSc3nnc(CNC(=O)c4ccco4)n3-c3cc(C)ccc3C)C(c3ccc(OC)cc3)C2)cc1 (stereo not given)	30	–
CC(C)(C)c1cc(/C=C/C(=O)Nc2ccc(CNC(=O)C(C#N)=C3CCCCC3)cc2)cc(C(C)(C)C)c1O	20	–
COc1cc(/C=C2/SC(=S)N(C3CCCCC3)C2=O)ccc1OCc1ccccc1Cl	0	–

Compound	inhibition (Autotaxin [2]) [%]	further results
COc1ccc(-c2cc(C(=O)NC(C(=O)NCCCCCCO)C(C)C)c3ccccc3n2)cc1C (stereo not given)	10	–
COc1ccc(Cl)cc1NC(=O)CSC1=C(C#N)C(c2ccc(OC)c(OC)c2)CC(=O)N1 (stereo not given)	–	Activity (Autotaxin [1]): Active
COc1cc(C2CC(=O)NC(SCC(N)=O)=C2C#N)ccc1O (stereo not given)	0	–
COc1ccc(C2CC(=O)NC(SCC(=O)Nc3ccc(I)cc3)=C2C#N)cc1 (stereo not given)	20	–
Cc1cc(C)cc(CC(=O)N2CCCN(c3ccc(C(=O)NC(C(N)=O)C(C)O)cn3)CC2)c1 (stereo not given)	10	–
CCCOC(=O)c1ccc(/N=C/c2cccc(OC)c2O)cc1	10	–
COc1ccc(OCCNC(=S)Nc2ccc(-c3ccccc3)cc2)cc1	–	Activity (Autotaxin [1]): Active
CCCCCOc1ccc(/C=N/c2ccc(/N=C/c3ccc(OCCCCC)cc3)c(Cl)c2)cc1	0	–
CCC(C)C(NC(=O)OCc1ccccc1)C(=O)NC(Cc1ccc(O)cc1)C(N)=O (stereo not drawn) (Cbz-Ile-Tyr-NH2; configuration not given here)	0	–
CCCCCCCCCCCCCCCCS(=O)(=O)c1ccc(S(=O)(=O)N/N=c2\sc3ccc(S(=O)(=O)O)cc3n2C)cc1C(=O)O	20	–
COc1cccc(CC(=O)NCCNc2nc3cc4c(cc3cc2C#N)OCO4)c1	20	–
CCOC(=O)c1sc(NC(=O)c2ccc(Oc3ccc(C(=O)Nc4sc(C(=O)OCC)c(C)c4C(=O)OCC)cc3)cc2)c(C(=O)OCC)c1C	10	–
O=[N+]([O-])c1cc(/C=N/c2ccc3nc(SCc4ccc(Br)cc4)sc3c2)ccc1O	0	–
COc1ccc(C2CC(=O)NC(SCC(=O)Nc3ccc(I)cc3)=C2C#N)cc1OC (stereo not given)	20	–
CCCCCCOc1ccc(C(=O)COC(=O)c2ccccc2-c2ccccc2C(=O)COC(=O)c2ccc(OCCCCCC)cc2)cc1	0	–
CCCCn1c(CN2CC(C)CC(C)C2)nc2cc(C(=O)NCC(O)CO)ccc21 (stereo not given)	0	–
CC1CCC(OCC(=O)N2CCN(c3ncccc3C(=O)N3CCCC3C(N)=O)CC2)C(C(C)C)C1 (stereo not given)	20	–
COc1cccc(C2CC(=O)NC(SCC(=O)Nc3ccccc3C)=C2C#N)c1OC (stereo not given)	30	–
CC(=O)Nc1ccc(S(=O)(=O)N/N=C/c2ccc(OCc3ccccc3)cc2)cc1	–	Activity (Autotaxin [1]): Active
Cc1cc(C)cc(CC(=O)N2CCC(CCCC3CCN(c4ccc(C(=O)NC(C(N)=O)C(C)O)cn4)CC3)CC2)c1 (stereo not given)	83.2	Activity (A2058 [7]): inactive; Activity (A2058 [4]): inactive; Ki (Autotaxin [6]): 17900 nM; IC50 (Autotaxin [3]): 900 nM
COc1cccc(/C=C2/NC(=O)N(c3cccc(Cl)c3)C2=O)c1OCc1cccc(C(=O)O)c1	30	–
COc1cc(CCNC(=O)c2ccc3c(c2)nc(-c2cc(OC)cc(OC)c2)n3CCc2ccc(OC)c(OC)c2)cc(OC)c1	30	–
COc1ccc(-c2cc(C(F)(F)F)n3nc(C(=O)Nc4cc(Sc5ccc(Br)cc5)cc([N+](=O)[O-])c4)c(Cl)c3n2)cc1OC	10	–
